# Assay results published in patent US20050197338A1, “Substituted pyrazole urea compounds for the treatment of inflammation” (priority 2003, published 2005).
# Molecular target: T1, human IKK-2 (rhIKK-2 homodimer) (Homo sapiens, UniProt O14920)
# T1 construct: FLAG (DYKDDDDKD) (C); made in house; host or cells: insect cells (baculovirus, pFastBac)
# T1 sequence (O14920 1-756): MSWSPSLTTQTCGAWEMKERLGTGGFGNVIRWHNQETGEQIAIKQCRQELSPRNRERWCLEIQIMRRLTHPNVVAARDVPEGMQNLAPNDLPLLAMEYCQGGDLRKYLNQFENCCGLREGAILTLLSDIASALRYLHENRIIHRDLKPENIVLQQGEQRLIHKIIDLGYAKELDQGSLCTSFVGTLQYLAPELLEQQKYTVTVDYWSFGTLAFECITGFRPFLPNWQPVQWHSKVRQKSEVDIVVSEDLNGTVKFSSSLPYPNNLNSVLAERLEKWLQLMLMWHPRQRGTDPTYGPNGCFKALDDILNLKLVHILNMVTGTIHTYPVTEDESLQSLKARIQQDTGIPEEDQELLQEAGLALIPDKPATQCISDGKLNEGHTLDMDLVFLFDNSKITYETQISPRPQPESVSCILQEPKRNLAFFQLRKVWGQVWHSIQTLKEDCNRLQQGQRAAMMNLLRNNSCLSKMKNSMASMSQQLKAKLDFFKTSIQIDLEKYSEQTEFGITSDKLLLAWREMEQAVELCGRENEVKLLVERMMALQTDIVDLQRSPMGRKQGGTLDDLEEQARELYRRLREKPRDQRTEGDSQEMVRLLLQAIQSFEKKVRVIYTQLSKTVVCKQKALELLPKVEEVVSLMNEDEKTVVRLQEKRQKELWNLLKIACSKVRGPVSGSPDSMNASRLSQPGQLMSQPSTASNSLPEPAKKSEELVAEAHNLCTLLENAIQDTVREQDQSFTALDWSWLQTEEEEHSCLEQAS
# Assay: IKK-2 Resin Enzyme Assay (Human IKK-2 Enzyme Assay)
# Assay type: biochemical
# Conditions: human IKK-2, resin enzyme assay; read-out: IC50 (μM) hIKK-2
# From the text: Materials: SAM^2™96 Biotin capture plates were from Promega. Anti-FLAG affinity resin, FLAG-peptide, NP-40 (Nonidet P-40), BSA, ATP, ADP, AMP, LPS (E. coli serotype 0111:B4), and dithiothreitol were obtained from Sigma Chemicals. Antibodies specific for NEMO (IKK-γ) (FL-419), IKK-1 (H-744), IKK-2(H-470) and IκBa(C-21) were purchased from Santa Cruz Biotechnology. Ni-NTA resin was purchased from Qiagen. Peptides were purchased from American Peptide Company. Protease inhibitor cocktail tablets were from Boehringer Mannheim. Sephacryl S-300 column was from Pharmacia LKB Biotechnology. Centriprep-10 concentrators with a molecular weight cutoff of 10 kDa and membranes with molecular weight cut-off of 30 kDa were obtained from Amicon. [γ-^33P] ATP (2500 Ci/mmol) and [γ-^32P] ATP (6000 Ci/mmol) were purchased from Amersham. The other reagents used were of the highest grade commercially available.
# Cloning and Expression: cDNAs of human IKK-1 and IKK-2 were amplified by reverse transcriptase-polymerase chain reaction from human placental RNA (Clonetech). hlKK-1 was subcloned into pFastBac HTa (Life Technologies) and expressed as N-terminal His6-tagged fusion protein. The hlKK-2 cDNA was amplified using a reverse oligonucleotide primer which incorporated the peptide sequence for a FLAG-epitope tag at the C-terminus of the IKK-2 coding region (DYKDDDDKD). The hlKK-2:FLAG cDNA was subcloned into the baculovirus vector pFastBac. The rhIKK-2 ([…]) mutant was constructed in the same vector used for wild type rhIKK-2 using a QuikChange™ mutagenesis kit (Stratagene). Viral stocks of each construct were used to infect insect cells grown in 40 L suspension culture. […] Cell lysates were stored at −80° C. until purification of the recombinant proteins was undertaken as described below.
# Enzyme Isolation: All purification procedures were carried out at 4° C. unless otherwise noted. Buffers used are: buffer A: 20 mM Tris-HCl, pH 7.6, containing 50 mM NaCl, 20 mM NaF, 20 mM β-Glycerophosphate, 500 μM sodium orthovanadate, 2.5 mM metabisulfite, 5 mM benzamidine, 1 mM EDTA, 0.5 mM EGTA, 10% glycerol, 1 mM DTT, 1× Complete™ protease inhibitors; buffer B: same as buffer A, except 150 mM NaCl, and buffer C: same as buffer A, except 500 mM NaCl.
# Isolation of rhIKK-2 homodimer: A 10-liter culture of baculovirus-expressing IKK-2 tagged with FLAG peptide was centrifuged and the cell pellet (MOI=0.1 and 1=72 h) was re-suspended in buffer A. These cells were microfluidized, and centrifuged at 100,000×g for 45 min. Supernatant was passed over a G-25 column equilibrated with Buffer A. Protein peak was collected and incubated with anti-FLAG affinity resin on a rotator overnight in buffer B. The resin was washed in batch with 10-15 bed volumes of buffer C. Washed resin was poured into a column and rhIKK-2 homodimer was eluted using 5 bed volumes of buffer B containing FLAG peptide. 5 mM DTT, 0.1% NP-40 and BSA (concentrated to 0.1% in final amount) was added to the eluted enzyme before concentrating in using an Amicon membrane with a molecular weight cut-off of 30 kDa. Enzyme was aliquoted and stored at −80° C.
# IKK-2 Resin Enzyme Assay: IKK-2 kinase activity was measured using a biotinylated IκBα peptide (Gly-Leu-Lys-Lys-Glu-Arg-Leu-Leu-Asp-Asp-Arg-His-Asp-Ser32-Gly-Leu-Asp-Ser36-Met-Lys-Asp-Glu-Glu) (American Peptide Co.). 20 μL of the standard reaction mixture contained 5 μM biotinylated IκBα peptide, 0.1 μCi/reaction [γ-^33P] ATP (Amersham) (about 1×10^5 cpm), 1 μM ATP (Sigma), 1 mM DTT (Sigma), 2 mM MgCl2 (Sigma), 2 mM MnCl2 (Sigma), 10 mM NaF (Sigma), 25 mM Hepes (Sigma) buffer, pH 7.6 and 20 μL enzyme solution and 10 μL inhibitor in a final volume of 50 μL. After incubation at 25° C. for 30 min, 150 μL resin (Dowex anion-exchange resin AG1X8 200-400 mesh) in 900 mM formate, pH 3.0 was added to each well to stop the reaction. Resin was allowed to settle for 1 h and 50 μL of supernatant was removed to a Micolite-2 flat bottom plate (Dynex). […]
row,Structure (SMILES),IC50
1,"CC(=O)COc1cccc(-c2ccc(-n3cc(NC(N)=O)c(C(N)=O)n3)cc2)c1 [Example 253, 4-[(aminocarbonyl)amino]-1-[3′-(2-oxopropoxy)-1,1′-biphenyl-4-yl]-1H-pyrazole-3-carboxamide]",1.01 µM
2,NC(=O)Nc1cn(-c2cccc(-c3ccc[nH]3)c2)nc1C(N)=O [Example 68],0.55 µM
3,"CCN(CC)C(=O)CCc1cccc(-c2ccc(-n3cc(NC(N)=O)c(C(N)=O)n3)cc2)c1 [Example 382, 4-[(aminocarbonyl)amino]-1-{3′-[3-(diethylamino)-3-oxopropyl]-1,1′-biphenyl-4-yl}-1H-pyrazole-3-carboxamide]",0.9 µM
4,"CC(=O)Nc1ccc(-c2cccc(-n3cc(NC(N)=O)c(C(N)=O)n3)c2)cc1 [Example 55, 1-[4′-(acetylamino)-1,1′-biphenyl-3-yl]-4-[(aminocarbonyl)amino]-1H-pyrazole-3-carboxamide]",1.04 µM
5,"CCOc1cc(-n2cc(NC(N)=O)c(C(N)=O)n2)ccc1-c1cccc(OCC#N)c1 [Example 231, 4-[(aminocarbonyl)amino]-1-[3′-(cyanomethoxy)-2-ethoxy-1,1′-biphenyl-4-yl]-1H-pyrazole-3-carboxamide]",4.88 µM
6,"NC(=O)Nc1cn(-c2ccc(S(=O)(=O)c3ccc(F)cc3)cc2Cl)nc1C(N)=O [Example 377, 1-(1-(4-(4-fluorophenylsulfonyl)-2-chlorophenyl)-3-carbamoyl-1H-pyrazol-4-yl)urea]",0.113 µM
7,"Cc1cc(-n2cc(NC(N)=O)c(C(N)=O)n2)ccc1-c1ccc(F)cc1O [Example 241, 1-(4′-Fluoro-2′-hydroxy-2-methyl-biphenyl-4-yl)-4-ureido-1H-pyrazole-3-carboxylic acid amide]",1.68 µM
8,"CSc1cccc(-c2cccc(-n3cc(NC(N)=O)c(C(N)=O)n3)c2)c1 [Example 357, 4-[(aminocarbonyl)amino]-1-[3′-(methylthio)-1,1′-biphenyl-3-yl]-1H-pyrazole-3-carboxamide]",> 20 µM
9,NC(=O)Nc1nn(-c2ccc(-c3cccc(C(F)(F)F)c3)cc2)cc1C(N)=O [Example 131],3.15 µM
10,"COc1cccc(CNC(=O)c2ccc(-c3ccc(-n4cc(NC(N)=O)c(C(N)=O)n4)cc3)cc2F)c1 [Example 153, 4-[(aminocarbonyl)amino]-1-(3′-fluoro-4′-{[(3-methoxybenzyl)amino]carbonyl}-1,1′-biphenyl-4-yl)-1H-pyrazole-3-carboxamide]",0.32 µM
11,"COc1ccc(Cl)cc1-c1cccc(-n2cc(NC(N)=O)c(C(N)=O)n2)c1 [Example 365, 4-[(aminocarbonyl)amino]-1-(5′-chloro-2′-methoxy-1,1′-biphenyl-3-yl)-1H-pyrazole-3-carboxamide]",11.6 µM
12,"NC(=O)Nc1cn(-c2ccc(-c3ccc(CO)cc3)cc2)nc1C(N)=O [Example 38, 4-[(aminocarbonyl)amino]-1-[4′-(hydroxymethyl)-1,1′-biphenyl-4-yl]-1H-pyrazole-3-carboxamide]",0.83 µM
13,NC(=O)Nc1nn(-c2ccc(-c3cc(Cl)cc(Cl)c3)cc2)cc1C(N)=O [Example 137],> 20 µM
14,"CC(C)c1cccc(-c2cccc(-n3cc(NC(N)=O)c(C(N)=O)n3)c2)c1 [Example 352, 4-[(aminocarbonyl)amino]-1-(3′-isopropyl-1,1′-biphenyl-3-yl)-1H-pyrazole-3-carboxamide]",> 20 µM
15,"COc1ccc(CNC(=O)c2ccc(-c3ccc(-n4cc(NC(N)=O)c(C(N)=O)n4)cc3)cc2F)cc1 [Example 150, 4-[(aminocarbonyl)amino]-1-(3′-fluoro-4′-{[(4-methoxybenzyl)amino]carbonyl}-1,1′-biphenyl-4-yl)-1H-pyrazole-3-carboxamide]",0.63 µM
16,CSc1ccc(-c2ccc(-n3cc(C(N)=O)c(NC(N)=O)n3)cc2)cc1 [Example 119],0.664 µM
17,"NC(=O)Nc1cn(-c2ccc(-c3ccccc3O)cc2F)nc1C(N)=O [Example 249, 4-[(aminocarbonyl)amino]-1-(3-fluoro-2′-hydroxy-1,1′-biphenyl-4-yl)-1H-pyrazole-3-carboxamide]",0.892 µM
